Experimental data published in ChEMBL document CHEMBL4813939, “Diterpenoids and Diacetylenes from the Roots of Aralia cordata with Inhibitory Effects on Nitric Oxide Production” (J Nat Prod, 2021).

System: RAW264.7
Assay: Anti-inflammatory activity in mouse RAW264.7 cells assessed as inhibition of LPS-induced NO production preincubated for 1 hr followed by LPS stimulation and measured after 24 hrs by Griess reagent based assay
Format: functional, cell-based

| IC50 | SMILES |
| --- | --- |
| 47.8 µM | C[C@@]12CCC[C@@](C)(C(=O)O)[C@H]1CC[C@]13C=C(CO)[C@H](CC[C@H]12)C3 |
| 51.1 µM | C[C@@]12CCC[C@@](C)(C(=O)O)[C@H]1CC[C@]13C=C(C(=O)O)[C@H](CC[C@H]12)C3 |
| 28.2 µM | CC(C)CC(=O)OC[C@@]1(O)C[C@@]23CC[C@H]4[C@@](C)(CCC[C@@]4(C)C(=O)O)[C@@H]2CC[C@@H]1C3 |
| 10.2 µM | C=C[C@]1(C)C=C2CC[C@@H]3[C@](C)(CO)CCC[C@@]3(C)[C@@H]2CC1 |
| 35.1 µM | CC(C)CC(=O)OC[C@H](O)[C@]1(C)C=C2CC[C@H]3[C@@](C)(CCC[C@]3(C)C(=O)O)[C@@H]2CC1 |
| 44 µM | C=C/C(C)=C\C[C@@H]1C(=C)CC[C@@H]2[C@](C)(CO)CCC[C@@]12C |
| 14.9 µM | C=C[C@@]1(C)CCC2=C(C1)C(=O)C[C@@H]1[C@](C)(C(=O)O)CCC[C@@]21C |
| 10 µM | C=C[C@@]1(C)CC=C2[C@@H](CC[C@@H]3[C@](C)(C(=O)O)CCC[C@@]23C)C1=O |
| 11.5 µM | C=C[C@@]1(C)CCC2=C(CC[C@@H]3[C@](C)(C(=O)O)CCC[C@@]23C)C1=O |
| 69.4 µM | C[C@@]12CCC[C@@](C)(C(=O)O)[C@H]1CCC1=C[C@@](C)([C@H]3CO3)CC[C@H]12 |
| 10.6 µM | C=C[C@]1(COC(=O)CC(C)C)C=C2CC[C@H]3[C@@](C)(CCC[C@@]3(C)C(=O)O)[C@@H]2CC1 |
| 17.6 µM | C=C[C@@]1(C)CC=C2C(CC[C@@H]3[C@](C)(CO)CCC[C@@]23C)C1 (stereo partly drawn) |
| 21.7 µM | C=C[C@@]1(C)CCC2=C(C1=O)[C@H](O)C[C@@H]1[C@](C)(C(=O)O)CCC[C@@]21C |
| 14.2 µM | C[C@@]12CCC[C@@](C)(C(=O)O)[C@H]1CC[C@]13C=C(C=O)[C@H](CC[C@H]12)C3 |
| 66.8 µM | C=C[C@]1(C)C=C2C(=O)C[C@H]3[C@@](C)(CCC[C@@]3(C)C(=O)O)[C@@H]2CC1 |
| 1.1 µM | C=CCCCCC/C=C\[C@H](O)C#CC#CC(CC)OC(=O)/C=C/c1ccc(O)cc1 (stereo partly drawn) |
| 5.4 µM | C=C1C[C@@]23CC[C@@H]4[C@](C)(CO)CCC[C@@]4(C)[C@@H]2CC[C@@H]1C3 |
| 25.4 µM | C=C1[C@@H]2CC[C@H]3[C@]4(C)CCC[C@@](C)(C(=O)O)[C@H]4CC[C@]3(C2)[C@H]1O |

| SMILES | IC50 |
| --- | --- |
| C=C[C@H](O)C#CC#C[C@@H](O)/C=C\CCCCCCC | 5.4 µM |
| C=CCCCCC/C=C\[C@@H](C#CC#C[C@@H](O)CC)OC(C)=O | 2.3 µM |
| C=CCCCCC/C=C\[C@H](O)C#CC#C[C@@H](O)CC [DENDROARBOREOL A] | 40.5 µM |
| N=C(N)NN [PIMAGEDINE] | 18.7 µM |

System: RAW264.7
Assay: Cytotoxicity against mouse RAW264.7 cells assessed as reduction in cell viability by MTT assay
Format: cell-based

| SMILES | Activity |
| --- | --- |
| C[C@@]12CCC[C@@](C)(C(=O)O)[C@H]1CC[C@]13C=C(CO)[C@H](CC[C@H]12)C3 | Non-Toxic |
| C[C@@]12CCC[C@@](C)(C(=O)O)[C@H]1CC[C@]13C=C(C(=O)O)[C@H](CC[C@H]12)C3 | Non-Toxic |
| C=C[C@H](O)C#CC#C[C@@H](O)/C=C\CCCCCCC | Non-Toxic |
| CC(C)CC(=O)OC[C@@]1(O)C[C@@]23CC[C@H]4[C@@](C)(CCC[C@@]4(C)C(=O)O)[C@@H]2CC[C@@H]1C3 | Non-Toxic |
| C=C[C@]1(C)C=C2CC[C@@H]3[C@](C)(CO)CCC[C@@]3(C)[C@@H]2CC1 | Non-Toxic |
| CC(C)CC(=O)OC[C@H](O)[C@]1(C)C=C2CC[C@H]3[C@@](C)(CCC[C@]3(C)C(=O)O)[C@@H]2CC1 | Non-Toxic |
| C=C/C(C)=C\C[C@@H]1C(=C)CC[C@@H]2[C@](C)(CO)CCC[C@@]12C | Non-Toxic |
| C=C[C@@]1(C)CCC2=C(C1)C(=O)C[C@@H]1[C@](C)(C(=O)O)CCC[C@@]21C | Non-Toxic |
| C=C[C@@]1(C)CC=C2[C@@H](CC[C@@H]3[C@](C)(C(=O)O)CCC[C@@]23C)C1=O | Non-Toxic |
| C=C[C@@]1(C)CCC2=C(CC[C@@H]3[C@](C)(C(=O)O)CCC[C@@]23C)C1=O | Non-Toxic |
| C[C@@]12CCC[C@@](C)(C(=O)O)[C@H]1CCC1=C[C@@](C)([C@H]3CO3)CC[C@H]12 | Non-Toxic |
| C=C[C@]1(COC(=O)CC(C)C)C=C2CC[C@H]3[C@@](C)(CCC[C@@]3(C)C(=O)O)[C@@H]2CC1 | Non-Toxic |
| C=C[C@@]1(C)CC=C2C(CC[C@@H]3[C@](C)(CO)CCC[C@@]23C)C1 (stereo partly drawn) | Non-Toxic |
| C=C[C@@]1(C)CCC2=C(C1=O)[C@H](O)C[C@@H]1[C@](C)(C(=O)O)CCC[C@@]21C | Non-Toxic |
| C[C@@]12CCC[C@@](C)(C(=O)O)[C@H]1CC[C@]13C=C(C=O)[C@H](CC[C@H]12)C3 | Non-Toxic |
| C=C[C@]1(C)C=C2C(=O)C[C@H]3[C@@](C)(CCC[C@@]3(C)C(=O)O)[C@@H]2CC1 | Non-Toxic |
| C=CCCCCC/C=C\[C@@H](C#CC#C[C@@H](O)CC)OC(C)=O | Non-Toxic |
| C=CCCCCC/C=C\[C@H](O)C#CC#CC(CC)OC(=O)/C=C/c1ccc(O)cc1 (stereo partly drawn) | Non-Toxic |
| C=C1C[C@@]23CC[C@@H]4[C@](C)(CO)CCC[C@@]4(C)[C@@H]2CC[C@@H]1C3 | Non-Toxic |
| C=C1[C@@H]2CC[C@H]3[C@]4(C)CCC[C@@](C)(C(=O)O)[C@H]4CC[C@]3(C2)[C@H]1O | Non-Toxic |
| C=CCCCCC/C=C\[C@H](O)C#CC#C[C@@H](O)CC [DENDROARBOREOL A] | Non-Toxic |
